Structures can show the parent of a compound that is named as a salt.
What was measured:
[1] = tested on: HCT116; assay: AC50 cell viability (CellTiter-Glo); higher = less potent; settings: 48 h
[2] = tested on: HCT116; assay: efficacy (fitted maximal change in viability relative to DMSO control); higher = less cytotoxic (negative = loss of viability); settings: 48 h
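Wherever AC50 cell viability (CellTiter-Glo) is given: HCT116 colorectal carcinoma cells screened at five concentrations per compound, luminescent viability scaled between DMSO wells and empty wells on each plate, curves fitted per compound.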
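Wherever efficacy (fitted maximal change in viability relative to DMSO control) is given: Luminescence-based viability readout, five doses per compound, normalized against on-plate DMSO and empty-well controls, followed by dose-response curve fitting for every drug.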

Row | Structure (SMILES) | AC50 cell viability [1] [µM] | efficacy [2] [%]
1 | C[C@H](NC(=O)[C@@H]1C[C@@H](O)CN1C(=O)[C@@H](NC(=O)COCCCOCCNC(=O)C[C@@H]2\N=C(C3=CC=C(Cl)C=C3)/C4=C(SC(=C4C)C)[N]5C(=NN=C25)C)C(C)(C)C)C6=CC=C(C=C6)C7=C(C)N=CS7 [ARV-771] | 0.148 | -91
2 | COc1cc(-c2nn(C3CCC(N4CCN(C(C)=O)CC4)CC3)c3ncnc(N)c23)ccc1NC(=O)c1cc2ccccc2n1C (stereo unspecified) | 10.5 | -90.5
3 | CC[P](CC)(CC)=[Au][S][C@@H]1O[C@H](COC(C)=O)[C@@H](OC(C)=O)[C@H](OC(C)=O)[C@H]1OC(C)=O [Auranofin] | 2.63 | -100
4 | O=C(NO)c1cnc(NC2(c3cccc(F)c3)CCCCC2)nc1 [ACY-775] | 16.6 | -75.6
5 | C[C@H](NC(=O)C(=O)Nc1ccccc1C(C)(C)C)C(=O)N[C@@H](CC(=O)O)C(=O)COc1c(F)c(F)cc(F)c1F [Emricasan] | 13.2 | -89.4
6 | COc1cccc(Nc2ncnn3ccc(CN4CC[C@@H](N)[C@H](O)C4)c23)c1 | 18.6 | -71.1
7 | c1cc(-c2cnn3cc(-c4ccc(N5CCNCC5)cc4)cnc23)c2cccnc2c1 | 6.61 | -81.9
8 | Cc1cc(C(=O)N2CCN(c3cccc(Cl)c3)CC2)n(-c2ccccc2)n1 [XRP-44X] | 2.95 | -62.8
9 | CC(C)(C)Cn1c(N)nc2ccc(-c3[nH]c(C(C)(C)C)nc3-c3ccc(F)cc3)nc21 | 23.5 | -83.7
10 | S=C(NCc1ccc2c(c1)OCO2)N1CCN(c2ncnc3c2oc2ccccc23)CC1 [Amuvatinib] | 1.86 | -38.8
11 | Nc1nc(F)nc2c1ncn2[C@@H]1O[C@H](CO)[C@@H](O)[C@@H]1O [2-Fluoroadenosine] | 9.34 | -57.1
12 | C[C@]12CC[C@@H]3c4ccc(O)cc4CC[C@H]3[C@@H]1CC[C@@H]2O [Estradiol] | 20.9 | -60.4
13 | O=C(NCCCNC(=O)c1cccnc1O)c1cc(-c2ccccc2)on1 [ML327] | 8.33 | -62.3
14 | Oc1ccc(/C=C/c2cc(O)cc(O)c2)cc1 [Resveratrol] | 20.9 | -49.1
15 | Cc1c(C(=O)N2CCOc3ccc(-c4ccc(N)nc4)cc3C2)ccc([S+](C)(=O)[O-])c1F [XL-388] | 10.5 | -65.5
16 | CCCOc1ccc(CCc2nc3cc(-c4c(C)noc4C)ccc3n2CCN2CCOCC2)cc1 [PF-CBP1] | 14.8 | -94.5
17 | COc1cccc2c(NCc3ccccc3)nc(-n3c(N)nc4ccccc43)nc12 | 5.9 | -93.4
18 | O=C(c1ccc(F)c(F)c1Nc1ccc(I)cc1F)N1CC(O)([C@@H]2CCCCN2)C1 [Cobimetinib] | 1.86 | -105
19 | CCN1CCN(C(=O)Cc2ccc(Nc3ncc(F)c(Nc4ccc(C(=O)Nc5ccccc5Cl)cc4)n3)cc2)CC1 [Aurora A Inhibitor I] | 7.42 | -105
20 | CN(C)CCOc1ccc(-c2nc(-c3ccncc3)c(-c3ccc4c(c3)CC/C4=N\O)[nH]2)cc1 | 11.8 | -134

Row | Structure (SMILES) | AC50 cell viability [1] [µM] | efficacy [2] [%]
21 | CC1=C2N=C([NH]C2=CC(=C1)N3CCOCC3)\C4=C(NC[C@@H](O)C5=CC=CC(=C5)Cl)\C=C/NC4=O | 6.61 | -93.9
22 | C=CC(=O)Nc1cccc(Nc2nc(Nc3ccc(N4CCN(C(C)=O)CC4)cc3OC)ncc2C(F)(F)F)c1 [Rociletinib] | 8.33 | -112
23 | COCCOC(=O)N1CCN([S+](=O)([O-])c2cc(F)c(Oc3ccc(Cl)cc3)c(F)c2)C(C(=O)NO)C1 (stereo unspecified) [XL-784] | 10.5 | -92.6
24 | C[S+](=O)([O-])CCNCc1ccc(-c2ccc3ncnc(Nc4ccc(OCc5cccc(F)c5)c(Cl)c4)c3c2)o1 [Lapatinib] | 16.6 | -99.2
25 | Nc1nc(Cl)nc2c1ncn2[C@H]1C[C@H](O)[C@@H](CO)O1 [Cladribine] | 0.295 | -55.8
26 | C=CC(=O)Nc1cccc(Nc2nc(Nc3ccc(OCCOC)cc3)ncc2F)c1 [Spebrutinib (AVL-292)] | 14.8 | -107
27 | Cc1cc(C(=O)Nc2cc(Oc3ccc4nc(NC(=O)C5CC5)cn4n3)ccc2C)n(C)n1 [TAK-593] | 14.8 | -56.7
28 | CN(C)Cc1ccc([S+](=O)([O-])n2ccc(/C=C/C(=O)NO)c2)cc1 [Resminostat] | 2.35 | -103
29 | CN1CCc2c(n(Cc3ccc(C(=O)NO)cc3)c3ccccc23)C1 [Compound 7] | 26.3 | -98.9
30 | COc1ccc(-c2cc(C(O)C3CCCCN3)c3ccccc3n2)cc1 (stereo unspecified) | 4.68 | -90.9
31 | COC[C@H](NC(=O)c1cnc(C)s1)C(=O)N[C@@H](COC)C(=O)N[C@@H](Cc1ccccc1)C(=O)[C@@]1(C)CO1 [Oprozomib] | 0.0742 | -88.1
32 | Oc1cc(O)cc(/C=C/c2ccc(O)c(O)c2)c1 [Piceatannol] | 26.3 | -69
33 | CCCCCNC(=N)N/N=C/c1c[nH]c2ccc(OC)cc12 [Tegaserod maleate] | 7.42 | -92.3
34 | CNC(=O)Nc1ccc(-c2nc(N3CC4CCC(C3)O4)c3cnn(C4CCC5(CC4)OCCO5)c3n2)cc1 | 1.18 | -96.3
35 | O=C\1NC(=O)\C(=C1C2=C[NH]C3=C2C=CC=C3)C4=C[NH]C5=C4C=CC=C5 [Bisindolylmaleimide] | 18.6 | -85.7
36 | CC1=N[NH]C=C1C2=CC\3=C(S2)C(=O)NC(=N3)\[C@@H]4CC5CCN4CC5 [TAK-931] | 2.63 | -65.2
37 | OC1=C(Cl)C=C(N\C2=C(\C(=O)NC2=O)C3=C(C=CC=C3)[N+]([O-])=O)C=C1 | 20.9 | -54.8
38 | C1CCC(C(CC2CCCCN2)C2CCCCC2)CC1 (stereo unspecified) [Perhexiline] | 6.61 | -92.2
39 | O=C1N\N=C(\CC2=CC=CC(=C2)C(=O)N3CCN(CC3)C4=NC=CC=C4C#N)C5=CC=CC=C15 [AZ-9482] | 5.25 | -54.2
40 | Cn1cc(-c2cnn3c(N)c(Br)c([C@@H]4CCCNC4)nc23)cn1 | 13.2 | -108

Row | Structure (SMILES) | AC50 cell viability [1] [µM] | efficacy [2] [%]
41 | CC1=C(C)C\2=C(S1)[N]3C(=NN=C3[C@H](CC(N)=O)\N=C2C4=CC=C(Cl)C=C4)C [CPI-203] | 0.372 | -58.5
42 | FC(F)(F)c1ccc(Nc2nc3cc(Oc4ccnc(-c5ncc(C(F)(F)F)[nH]5)c4)ccc3[nH]2)cc1 [RAF-265 derivative] | 14.8 | -84.8
43 | CCNC(=O)C#Cc1ccc2c(c1)NC(=O)/C2=C(\Nc1ccc(CN(C)C)cc1)c1ccccc1 | 0.257 | -104
44 | CC(=O)Nc1nc(C)c(-c2ccc(Cl)c([S+](=O)([O-])NCCO)c2)s1 [PIK-93] | 8.33 | -85.9
45 | COc1ccc(-c2cc3nccn3c(Nc3ncccc3C(N)=O)n2)cc1OC [BAY61-3606] | 4.17 | -66.9
46 | CC(C)C1=N[N](C\2=C1C(=O)N\C(=N2)CC3=CC=C(OCCO)C=C3)C4=C(Cl)C=CC=C4Cl | 0.0295 | -63.1
47 | CCC[C@H](N[C@H]1CCc2cc(F)cc(F)c2C1)C(=O)Nc1cn(C(C)(C)CNCC(C)(C)C)cn1 [Nirogacestat] | 20.9 | -90.3
48 | CC1(C)CCC(=C(CN2CCN(CC2)C3=CC=C(C=C3)C(=O)N[S+]([O-])(=O)C4=CC(=C(N[C@H](CCN5CCOCC5)CSC6=CC=CC=C6)C=C4)[S+]([O-])(=O)C(F)(F)F)\C1)/C7=CC=C(Cl)C=C7 [Navitoclax (ABT-263)] | 13.2 | -90.7
49 | CC(=O)NCC(=O)N1[C@@H]2CC[C@H]1c1ccc(Nc3ncc(C(F)(F)F)c(NC4CCC4)n3)cc12 | 1.48 | -73.5
50 | Cc1ccc(-n2nc(C(C)(C)C)cc2N/C(O)=N/Cc2cc(F)ccc2Oc2ccc3c(cnn3CCO)c2)cc1 [Pexmetinib] | 10.5 | -98.4
51 | ONC(=O)C1=CC=C(C=C1)C/2=N/C3=CC=CC=C3OC4=C2C=CC=C4 [HDACi-01] | 2.95 | -85.9
52 | CN1CCc2c(c3ccccc3n2Cc2ccc(C(=O)NO)cc2)C1 [Tubastatin A] | 10.5 | -93.8
53 | COc1c(C)c2c(c(O)c1C/C=C(\C)CCC(=O)OCCN1CCOCC1)C(=O)OC2 [Mycophenolate mofetil] | 2.63 | -80.7
54 | CC(C)[C@@H](N(CCCN)C(=O)C1=CC=C(C)C=C1)C/2=N/C3=CC(=CC=C3C(=O)N2CC4=CC=CC=C4)Cl [Ispinesib] | 0.0295 | -94.4
55 | C=CCn1c(=O)c2cnc(Nc3ccc(N4CCN(C)CC4)cc3)nc2n1-c1cccc(C(C)(C)O)n1 [MK-1775] | 0.742 | -73.8
56 | c1cn2cc(-c3ccc4cn[nH]c4c3)nc(Nc3ccc(N4CCOCC4)cc3)c2n1 [Entospletinib] | 5.9 | -34.9
57 | C[C@@H]1CN[C@H]2[C@@H](C)[C@@]3(CC[C@H]4[C@@H]5CC[C@@H]6C[C@@H](CC[C@]6(C)[C@H]5C\C4=C(C)\C3)N[S+](C)([O-])=O)O[C@@H]2C1 [Patidegib] | 14.8 | -94.4
58 | O=C(Nc1cccc(C(F)(F)F)c1)Nc1cc([S+](=O)([O-])NC2CC2)ccc1-c1ccsc1 [AGI-6780] | 26.3 | -99.4

— the supplement of paper PMC10290057
